According to ChEMBL document CHEMBL1201862, “PubChem BioAssay data set” (2004):
Where “and” joins values, the source holds several entries; their conditions need not be identical. Equal values may be shown once.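 In this assay, cells in 96-well plates receive the compound at five concentrations for 48 hours. Endpoints are linearly interpolated between the surrounding concentrations. GI50: concentration for 50% inhibition of growth.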 Calls of active or inactive are those of the source. Cut-off read from the data, not from the text of the source: active = GI50 up to about 1.1 µM and inactive = higher.

Legend:
Assay in all cases: NCI anticancer screen, dose series, 48 h
786-0 = test system: 786-0
A498 = test system: A498
A549 = test system: A549
ACHN = test system: ACHN
CAKI-1 = test system: CAKI-1
COLO 205 = test system: COLO 205
HCT-116 = test system: HCT-116
HOP-62 = test system: HOP-62
K562 = test system: K562
M14 = test system: M14
OVCAR-5 = test system: OVCAR-5
SF-268 = test system: SF-268
SK-MEL-2 = test system: SK-MEL-2
SW-620 = test system: SW-620
OVCAR-4 = test system: OVCAR-4
SNB-75 = test system: SNB-75

| Compound | GI50 (786-0) | GI50 (A498) | GI50 (A549) | GI50 (ACHN) | GI50 (CAKI-1) | GI50 (COLO 205) | GI50 (HCT-116) | GI50 (HOP-62) | GI50 (K562) | GI50 (M14) | GI50 (OVCAR-5) | GI50 (SF-268) | GI50 (SK-MEL-2) | GI50 (SW-620) | GI50 (OVCAR-4) | GI50 (SNB-75) |
| --- | --- | --- | --- | --- | --- | --- | --- | --- | --- | --- | --- | --- | --- | --- | --- | --- |
| COc1ccc2c(c1)CC[C@@H]1C2CC[C@]2(C)C(=N\O)/C(=N/O)CC12 (stereo partly specified) | 17.5 µM (inactive) | 19.1 µM (inactive) | 10.1 µM (inactive) | 15.7 µM (inactive) | 10.7 µM (inactive) | 14.3 µM (inactive) | 16 µM (inactive) | 11.7 µM (inactive) | 8.32 µM (inactive) | 13.4 µM (inactive) | 12.4 µM (inactive) | 17.9 µM (inactive) | 13.1 µM (inactive) | 17.6 µM (inactive) |  |  |
| CC(=O)CC(=O)ON(C)C(C)=O | > 100 µM (inactive) |  | > 100 µM (inactive) | > 100 µM (inactive) | > 100 µM (inactive) | > 100 µM (inactive) | > 100 µM (inactive) | > 100 µM (inactive) | > 100 µM (inactive) | > 100 µM (inactive) | > 100 µM (inactive) | > 100 µM (inactive) |  | > 100 µM (inactive) | 29.2 µM (inactive) | > 100 µM (inactive) |
| O=C(O)c1ccc(O)c(/N=N/c2cc(S(=O)(=O)O)c3ccccc3c2O)c1 | > 100 µM (inactive) | > 100 µM (inactive) | > 100 µM (inactive) | > 100 µM (inactive) | 54.3 µM (inactive) | 39.8 µM (inactive) | 20 µM (inactive) | 19.6 µM (inactive) | > 100 µM (inactive) |  | > 100 µM (inactive) | > 10 µM (inactive) | > 10 µM (inactive) | > 100 µM (inactive) | > 100 µM (inactive) | > 100 µM (inactive) |
| Clc1ccccc1C1=NN(c2ccccc2)C2c3cc(Br)ccc3OCC12 (stereo unspecified) | > 100 µM (inactive) | > 100 µM (inactive) | > 100 µM (inactive) | > 100 µM (inactive) |  | > 100 µM (inactive) | > 100 µM (inactive) | > 100 µM (inactive) | > 100 µM (inactive) |  | > 100 µM (inactive) | > 100 µM (inactive) | > 100 µM (inactive) | > 100 µM (inactive) |  | > 100 µM (inactive) |
| CCOc1ccc(NC(=O)CC2SC(Nc3ccc(C)cc3)=NC2=O)cc1 (stereo unspecified) | > 100 µM (inactive) | > 100 µM (inactive) | > 100 µM (inactive) | > 100 µM (inactive) |  | > 100 µM (inactive) | > 100 µM (inactive) | > 100 µM (inactive) |  | > 100 µM (inactive) | > 100 µM (inactive) | > 100 µM (inactive) |  | > 100 µM (inactive) | > 100 µM (inactive) | > 100 µM (inactive) |
| CN(C)CC/[N+]([O-])=C(/c1ccccc1)C12CC3CC(CC(C3)C1)C2 | 13.5 µM (inactive) | 18.3 µM (inactive) | 18.4 µM (inactive) | 16.3 µM (inactive) | 17 µM (inactive) | 14 µM (inactive) | 17.9 µM (inactive) | 14.8 µM (inactive) | 15.1 µM (inactive) | 13.4 µM (inactive) | 17.7 µM (inactive) | 20.9 µM (inactive) | 18.2 µM (inactive) |  |  | 11.9 µM (inactive) |
| C=C(C(=C)N1N=NC2C3CCC(C3)C21)N1N=NC2C3CCC(C3)C21 (stereo unspecified) | > 100 µM (inactive) |  | > 100 µM (inactive) | > 100 µM (inactive) | > 100 µM (inactive) | > 100 µM (inactive) | > 100 µM (inactive) | > 100 µM (inactive) | 65.2 µM (inactive) | > 100 µM (inactive) | > 100 µM (inactive) | > 100 µM (inactive) |  | > 100 µM (inactive) | > 100 µM (inactive) | 55.1 µM (inactive) |
| O=C1/C(=C/c2ccccc2)CN(C(=O)OCC(Cl)(Cl)Cl)C/C1=C\c1ccccc1 | 2.14 µM (inactive) | 2 µM (inactive) | 5.02 µM (inactive) | 1.98 µM (inactive) |  | 3.73 µM (inactive) | 1.33 µM (inactive) |  | 1.32 µM (inactive) | 2.14 µM (inactive) | 5.52 µM (inactive) | 3.81 µM (inactive) | 4.89 µM (inactive) | 1.09 µM (active) |  | 3.86 µM (inactive) |
| C/C(CC(=O)Nc1ccc(C)c(C)c1)=N\NC(N)=S | > 100 µM (inactive) |  | > 100 µM (inactive) | > 100 µM (inactive) |  | > 100 µM (inactive) | > 100 µM (inactive) | > 100 µM (inactive) | > 100 µM (inactive) | > 100 µM (inactive) | > 100 µM (inactive) | > 100 µM (inactive) | > 100 µM (inactive) | > 100 µM (inactive) |  | > 100 µM (inactive) |
| CNS(=O)(=O)NN(C)S(=O)(=O)c1ccc2ccccc2c1 | > 100 µM (inactive) | > 100 µM (inactive) | > 100 µM (inactive) | > 100 µM (inactive) | > 100 µM (inactive) | > 100 µM (inactive) | > 100 µM (inactive) | > 100 µM (inactive) | > 100 µM (inactive) | > 100 µM (inactive) |  |  | > 100 µM (inactive) | > 100 µM (inactive) | > 100 µM (inactive) | > 100 µM (inactive) |
| Cc1[nH]c2ccccc2c1C1Cc2ccccc2N1C(=O)/C=C/C=C/c1ccccc1 (stereo unspecified) | > 100 µM (inactive) | > 100 µM (inactive) | > 100 µM (inactive) | > 100 µM (inactive) | > 100 µM (inactive) | > 100 µM (inactive) | > 100 µM (inactive) | > 100 µM (inactive) | > 100 µM (inactive) | > 100 µM (inactive) | > 100 µM (inactive) |  | > 100 µM (inactive) | > 100 µM (inactive) | 24.3 µM (inactive) | > 100 µM (inactive) |
| Cc1ccc(S(=O)(=O)c2ccccc2[N+](=O)[O-])cc1 | > 100 µM (inactive) | > 100 µM (inactive) | > 100 µM (inactive) | > 100 µM (inactive) | 67.5 µM (inactive) |  | 66.8 µM (inactive) | 92.3 µM (inactive) | 73.3 µM (inactive) | > 100 µM (inactive) | > 100 µM (inactive) |  | > 100 µM (inactive) | > 100 µM (inactive) | 86.9 µM (inactive) | > 100 µM (inactive) |
| CCCN1CN(C(C(=O)N[C@@H]2C(=O)N3C2SC(C)(C)C3C(=O)O)c2ccc(O)cc2)CSC1=S (stereo partly specified) | > 100 µM (inactive) | > 100 µM (inactive) |  | > 100 µM (inactive) | > 100 µM (inactive) | 29.8 µM (inactive) | > 100 µM (inactive) | > 100 µM (inactive) | 24.4 µM (inactive) | > 100 µM (inactive) | > 100 µM (inactive) | > 100 µM (inactive) | > 100 µM (inactive) |  | > 100 µM (inactive) | > 100 µM (inactive) |
| COc1ccc(CN2CC(C)(C)C2=O)c(OC)c1 | > 100 µM (inactive) | > 100 µM (inactive) | > 100 µM (inactive) | > 100 µM (inactive) |  | > 100 µM (inactive) | > 100 µM (inactive) | > 100 µM (inactive) | > 100 µM (inactive) | > 100 µM (inactive) |  | > 100 µM (inactive) | > 100 µM (inactive) | > 100 µM (inactive) | > 100 µM (inactive) | 70.8 µM (inactive) |
| Cc1cc(N(CCC#N)CCC#N)ccc1/C=C(\NC(=O)/C=C/c1ccccc1)C(=O)N=[N+]=[N-] | 37.5 µM (inactive) | > 100 µM (inactive) | > 100 µM (inactive) | > 100 µM (inactive) | > 100 µM (inactive) | > 100 µM (inactive) | > 100 µM (inactive) | 32.1 µM (inactive) | > 100 µM (inactive) | > 100 µM (inactive) | > 100 µM (inactive) | 99.1 µM (inactive) | > 100 µM (inactive) | > 100 µM (inactive) |  | 23 µM (inactive) |
| COC1CC(n2cnc3c(N)ncnc32)OC1CO (stereo unspecified) | > 100 µM (inactive) |  | > 100 µM (inactive) | > 100 µM (inactive) | > 100 µM (inactive) | > 100 µM (inactive) | > 100 µM (inactive) | > 100 µM (inactive) | > 100 µM (inactive) | > 100 µM (inactive) | > 100 µM (inactive) | > 100 µM (inactive) | > 100 µM (inactive) | > 100 µM (inactive) | > 100 µM (inactive) | > 100 µM (inactive) |
| Fc1ccc2c(c1)SC1Oc3ccccc3-c3c1c-2nn3-c1ccccc1 (stereo unspecified) | > 100 µM (inactive) | > 100 µM (inactive) | > 100 µM (inactive) | > 100 µM (inactive) |  | > 100 µM (inactive) | 66.8 µM (inactive) | 30.4 µM (inactive) | > 100 µM (inactive) |  | > 100 µM (inactive) | > 100 µM (inactive) | > 100 µM (inactive) | > 100 µM (inactive) |  | 86.7 µM (inactive) |
| CCCC(=O)N[C@@H](Cc1cc(I)c(O)c(I)c1)C(=O)NCCCNCCCCNCCCNC(=O)[C@@H](N)CCCN=C(N)N | 73.3 µM (inactive) |  | > 100 µM (inactive) | 40.1 µM (inactive) |  | 40.6 µM (inactive) | 67 µM (inactive) | 33.8 µM (inactive) | 45.1 µM (inactive) | 25.7 µM (inactive) |  | > 10 µM (inactive) |  | > 100 µM (inactive) |  |  |
| COC1OC(COC(C)=O)C(OC(C)=O)C(OC(C)=O)C1NC(=O)N(CCCl)N=O (stereo unspecified) | 54.6 µM (inactive) and 63.4 µM (inactive) | > 100 µM (inactive) | > 100 µM (inactive) and 82.4 µM (inactive) | > 100 µM (inactive) | > 100 µM (inactive) | > 100 µM (inactive) | > 100 µM (inactive) |  | 65 µM (inactive) | > 100 µM (inactive) | > 100 µM (inactive) | 26.8 µM (inactive) and 20.3 µM (inactive) |  | > 100 µM (inactive) | > 100 µM (inactive) | 47.1 µM (inactive) and 34.4 µM (inactive) |
